Key:
[1] = test system: insulin-expressing cells derived from TCB f-MΦ; assay: Insulin release from insulin-expressing cells derived from TCB f-MΦ (ELISA); type: cell-based, human; conditions: 1 h
Protocol: TPO-expanded CB f-MΦ (TCB f-MΦ) cultured in 24-well tissue culture plates (Costar, Corning, N.Y.) at 60-70% confluence was treated for 3 days with 1 μg/ml LPS+25 mM glucose in 1 ml 7% FBS-RPMI 1640 medium per well. TCB f-MΦ cultured in the same concentration of glucose served as control. Insulin release was performed as previously described with minor modifications [F. Schuit, A. De Vos, S. Farfari, K. Moens, D. Pipeleers, T. Brun, M. Prentki, Metabolic fate of glucose in purified islet cells. Glucose-regulated anaplerosis in beta cells, J. Biol. Chem. 272 (1997) 18572-18579; and N. Lumelsky, O. Blondel, P. Laeng, I. Velasco, R. Ravin, R. McKay, Differentiation of embryonic stem cells to insulin-secreting structures similar to pancreatic islets, Science 292 (2001) 1389-1394]. Cells were washed 5 times with PBS to remove the serum and then incubated with Kreb's buffer (120 mM NaCl, 5 mM KCl, 2.5 mM CaCl2, 1.1 mM MgCl2, 25 mM NaHCO3, 0.1% BSA) [N. Lumelsky, O. Blondel, P. Laeng, I. Velasco, R. Ravin, R. McKay, Differentiation of embryonic stem cells to insulin-secreting structures similar to pancreatic islets, Science 292 (2001) 1389-1394] for 30 min in the absence of glucose, at 37° C., 8% CO2 conditions. After removing the Kreb's buffer, cells were incubated with different concentration of glucose (0, 5, 10, and 25 mM) and/or other secretagogues (10 μM tolbudamide (Sigma), 500 μM diazoxide (Sigma), or 25 mM mannite (Sigma) in 300 μl Kreb's buffer/well for 1 h. Each treatment had duplicated wells. Insulin levels were monitored using an ultrasensitive human insulin enzyme-linked immunosorbent assay (ELISA) kit (Alpco Diagnostics, Windham, N.H.) following the manufacturer's protocols. Cell number/well from each treatment was finally quantified for calculating insulin level.

[2] = test system: CB f-MΦ; assay: Cell proliferation of CB f-MΦ with TPO (CyQUANT Cell Proliferation Assay); type: cell-based, human
Protocol: Therefore, this stage f-MΦ, at ˜80% purity, was selected to examine the effect of TPO. Cells were washed with RPMI 1640 medium three times and then incubated with different concentration of TPO, such as 80, 40, 20, 10, 5, 2.5, 1.25, 0.625, and 0 ng/ml in the 8-well Lab-Tek chamber slides (Nunc, Naperville, Ill.) at 37° C., 8% CO2 conditions. After 4 days, cell proliferation was evaluated using CyQUANT® Cell Proliferation Assay Kit (Molecular Probes, Eugene, Oreg.). Cell fluorescence was measured using a Synergy HT Multi-Detection microplate reader (Bio-Tek Instruments Inc., Winooski, Vt.) equipped with filters for ˜480 nm excitation and ˜520 nm emission. The optical values were analyzed using the manufacturer's software KC4 v3.1.

[3] = test system: CB f-MΦ; assay: Immunostaining of TPO-expanded CB f-MΦ for phenotype markers; type: cell-based, human
Protocol: For f-MΦ expansion, the cells at 70% confluence were passaged at ratio 1:2 by pippetting and gently scraping with 100 μl tips (Rainin, Woburn, Mass.). Media were changed every 5-7 days with the fresh RPMI 1640 medium supplemented with 3.5% fetal bovine serum and 5 ng/ml thrombopoietin (TPO).

[4] = test system: TCB f-MΦ; assay: Differentiation of f-MΦ into insulin-expressing cells with LPS and high glucose (immunostaining); type: cell-based, human
Excerpt: The final insulin concentration in the culture medium was 0.196 μU/ml.

[5] = test system: TCB f-MΦ; conditions: 50 ng/ml VEGF for 5-7 days
Protocol: The cells were incubated for 20 min at room temperature with 2.5% diluted normal horse serum (Vector Laboratories, Burlingame, Calif.) to block nonspecific staining. Cells were then incubated with primary antibodies, the isotype-matched IgG1κ (BD PharMingen, San Diego, Calif.) (as control for mouse monoclonal antibodies), and normal rabbit serum (as control for rabbit polyclonal antibodies). After staining, the slides were mounted with Mounting Medium (Vector Laboratories, Burlingame, Calif.). Cells were viewed and photographed using a Zeiss LSM 510 META confocal microscope equipped with a 25× water immersion objective (Carl Zeiss Inc.), with Argon 488 nm laser for FITC fluorochrome filtered through LP505.
The TPO-expanded CB f-MΦ was treated with 50 ng/ml VEGF (Cell Sciences Inc., Canton, Mass.) in RPMI-1640 medium supplemented with 7% heat inactivated FBS as previously described [Y. Zhao, D. Glesne, E. Huberman, A human peripheral blood monocyte-derived subset acts as pluripotent stem cells, Proc. Natl. Acad. Sci. U.S.A. 100 (2003) 2426-2431]. After 5-7 days, the treated and untreated cells were prepared for characterizing with endothelial markers, including antibodies to Flt-1, Flk-1, vWF, CD31, and incorporating Dil-Ac-LDL as previously described [D. A. Ingram, L. E. Mead, H. Tanaka, V. Meade, A. Fenoglio, K. Mortell, K. Pollok, M. J. Ferkowicz, D. Gilley, M. C.

[6] = test system: Human umbilical cord blood-derived monocytes; assay: Generation of f-MΦ from cord blood monocytes with M-CSF (morphology, cell counting); type: cell-based
Protocol: Human umbilical cord blood samples (50-100 ml/unit) were obtained from healthy donors (Life-Source Blood Services, Glenview, Ill.). The f-MΦ culture was performed as previously described using human peripheral blood (14). Briefly, purified monocytes were seeded into the 8-Well Lab-Tek II Chamber Slide (Fisher Scientific) at 1×10^5 cells/ml, 0.5 ml/well in RPMI 1640 medium supplemented with 7% fetal bovine serum (Invitrogen, Carlsbad, Calif.) and 50 ng/ml M-CSF. The purity of f-MΦ normally reached 80-90% after incubation for 10-14 days at 37° C., 8% CO2 and was then used for experiments.

[7] = 5 ng/ml TPO, culture for 2 months

## CC1=NS(=O)(=O)c2cc(Cl)ccc2N1 [diazoxide]
[1]; 500 μM, in the presence of 25 mM glucose
  insulin release: inhibits insulin release

## OC[C@@H](O)[C@@H](O)[C@H](O)[C@H](O)CO [mannite]
[1]; 25 mM, osmolarity control
  insulin release: failed to stimulate insulin release

## CCCCNC(=O)NS(=O)(=O)c1ccc(C)cc1 [tolbutamide]
[1]; 10 μM, in the presence of 5 mM glucose
  insulin release: stimulates insulin release

## Thrombopoietin [TPO]
[2]; TPO 2.5-5 ng/ml
  cell number relative to TPO-untreated CB f-MΦ: about 2 times
  cell number relative to control monocytes: ~10 times
[2]; TPO >40 ng/ml
  proliferation of CB f-MΦ at higher dosage: inhibited the proliferation
[3]; [7]
  CD34 expression, share of cells: ~30%
  expression of CD45, CD14, CD163 and CD117: at the same level as parental CB f-MΦ
[3]; 4th and 5th passaged cells after TPO expansion
  expression of platelet and megakaryocyte markers CD41a, CD41b, CD42b: not induced

## lipopolysaccharide [LPS]
[4]; CB f-MΦ, 50 ng/ml LPS in the presence of 25 mM glucose for 2 days
  cells expressing glucagon-like peptide 1 receptor: around 70%
[4]; LPS 1 μg/ml in the presence of 25 mM glucose
  cells strongly positive for insulin and C-peptide: 85-90%

## vascular endothelial cell growth factor [VEGF]
[5]
  expression of endothelial cell-associated markers: significantly expressed Flt-1, Flk-1, vWF, and CD31

B1: macrophage colony-stimulating factor (protein, UniProt P09603 33-554, looked up)
Macrophage colony-stimulating …: EEVSEYCSHMIGSGHLQSLQRLIDSQMETSCQITFEFVDQEQLKDPVCYLKKAFLLVQDIMEDTMRFRDNTPNAIAIVQLQELSLRLKSCFTKDYEEHDKACVRTFYETPLQLLEKVKNVFNETKNLLDKDWNIFSKNCNNSFAECSSQDVVTKPDCNCLYPKAIPSSDPASVSPHQPLAPSMAPVAGLTWEDSEGTEGSSLLPGEQPLHTVDPGSAKQRPPRSTCQSFEPPETPVVKDSTIGGSPQPRPSVGAFNPGMEDILDSAMGTNWVPEEASGEASEIPVPQGTELSPSRPGGGSMQTEPARPSNFLSASSPLPASAKGQQPADVTGTALPRVGPVRPTGQDWNHTPQKTDHPSALLRDPPEPGSPRISSLRPQGLSNPSTLSAQPQLSRSHSSGSVLPLGELEGRRSTRDRRSPAEPEGGPASEGAARPLPRFNSVPLTDTGHERQSEGSFSPQLQESVFHLLVPSVILVLLAVGGLLFYRWRRRSHQEPQRADSPLEQPEGSPLTQDDRQVELPV
notes: Recombinant human macrophage colony-stimulating factor from Sigma
[6]; 50 ng/ml M-CSF for 10-14 days
  cells elongated: 80-90%
[6]; 50 ng/ml M-CSF, FIG. 1
  cell number: significantly increased the cell number

— patent publication US20070059824A1, “Human umbilical cord blood-derived pluripotent fibroblast-like-macrophages” (priority 2005, published 2007)
